Results as given in PubChem BioAssay (NCI).
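In this assay, cells in 96-well plates receive the compound at five concentrations for 48 hours. Endpoints are linearly interpolated between the surrounding concentrations. The concentration for 50% growth inhibition is given as GI50. At the TGI there is no net growth.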

Tests used:
Experiment in all cases: DTP human tumour cell line panel, 48 h
CAKI-1 renal = system: CAKI-1 renal
IGROV1 ovarian = system: IGROV1 ovarian
KM12 colon = system: KM12 colon
MOLT-4 leukemia = system: MOLT-4 leukemia
NCI-H460 lung = system: NCI-H460 lung
NCI-H522 lung = system: NCI-H522 lung
OVCAR-5 ovarian = system: OVCAR-5 ovarian
SF-268 CNS = system: SF-268 CNS
SK-MEL-2 melanoma = system: SK-MEL-2 melanoma
SK-OV-3 ovarian = system: SK-OV-3 ovarian

Structure (SMILES)	GI50 (CAKI-1 renal) [µM]	TGI (CAKI-1 renal) [µM]	GI50 (IGROV1 ovarian) [µM]	TGI (IGROV1 ovarian) [µM]	GI50 (KM12 colon) [µM]	TGI (KM12 colon) [µM]	GI50 (MOLT-4 leukemia) [µM]	TGI (MOLT-4 leukemia) [µM]	GI50 (NCI-H460 lung) [µM]	TGI (NCI-H460 lung) [µM]	GI50 (NCI-H522 lung) [µM]	TGI (NCI-H522 lung) [µM]	GI50 (OVCAR-5 ovarian) [µM]	TGI (OVCAR-5 ovarian) [µM]	GI50 (SF-268 CNS) [µM]	TGI (SF-268 CNS) [µM]	GI50 (SK-MEL-2 melanoma) [µM]	TGI (SK-MEL-2 melanoma) [µM]	GI50 (SK-OV-3 ovarian) [µM]	TGI (SK-OV-3 ovarian) [µM]
COc1ccc(NC(=O)c2sc3nc(C)c(C(O)c4ccccc4)cc3c2N)cc1 (centres undefined)	3.52	> 100	3.63	> 100	2	23.5	3.57	34	0.357	1.65	2.21	20.4	4.74	> 100	4.06	> 100	4.88	85.7	4.59	> 100
C1=Cc2nc1c(-c1ccncc1)c1ccc([n-]1)c(-c1ccncc1)c1nc(c(-c3ccncc3)c3ccc([n-]3)c2-c2ccncc2)C=C1.[Zn+2]	–	> 100	–	> 100	–	> 100	–	> 100	–	> 100	–	> 100	–	> 100	–	> 100	–	> 100	–	> 100
COc1ccc([N+](=O)[O-])c(S(=O)(=O)c2ccc(Cl)cc2)n1	1.61	3.01	12.2	31.3	14	27.8	3.59	> 100	14.6	30.1	1.86	3.77	3.13	12.3	4.57	17.8	11.4	24.3	15.1	31.9
CN(C)CCCc1c[nH]c2ccccc12	–	> 100	–	> 100	–	> 100	–	> 100	–	> 100	–	> 100	–	> 100	–	> 100	–	> 100	–	> 100
CCC(=C/[C@H](C)C/C=C/C(C)=C/[C@@H](C)C(=O)[C@@H](C)[C@H](O)[C@@H](C)CC)/C=C/[C@H]1OC(=O)C=C[C@H]1C	< 0.01	1.8	< 0.01	1.27	< 0.01	0.113	< 0.01	–	< 0.01	1.1	< 0.01	< 0.01	< 0.01	1.35	< 0.01	1.46	< 0.01	< 0.01	< 0.0221	3.44
COc1cc(/C=C2\COc3ccc(O)c(O)c3C2=O)cc(OC)c1	1.27	3.04	1.36	5.22	1.54	3.58	1.54	53.1	1.81	4.7	0.171	0.403	3.03	11.5	1.68	5.34	1.93	5.23	4.57	17.3
C=C1C(=O)O[C@H]2[C@H]1CC/C(COC(=O)NCc1c[nH]c3ccc(Cl)cc13)=C\CC[C@@]1(C)O[C@@H]21	1.45	2.81	1.41	2.94	2.37	6.28	1.34	4.91	1.96	3.96	0.527	2.05	1.77	4.01	1.66	3.51	1.42	2.87	5.75	18.9
COC1=CC(c2ccc[nH]2)=N/C1=C\c1[nH]c(C)c(C(=O)CCCCC(=O)Nc2ccccc2)c1C	4.75	11.9	0.811	2.07	1.03	2.3	0.522	2.01	1.25	2.63	1.32	3.46	3.14	16.5	1.26	2.72	11.9	26.7	18.3	40.1
COC(=O)C(Cl)=C1CC1	–	32.6	–	> 100	–	> 100	–	53.4	–	> 100	–	33.9	–	> 100	–	> 100	–	> 100	–	> 100
Cc1nc(NC(=O)CCCN2C(=O)c3cccc4cccc(c34)C2=O)sc1C(=O)Nc1cc(C(=O)NCCCN(C)C)n(C)c1	> 100	> 100	> 100	> 100	> 100	> 100	> 100	> 100	> 100	> 100	> 100	> 100	> 100	> 100	> 100	> 100	> 100	> 100	> 100	> 100
COc1ccc(/C=C/c2n[nH]c3ccc(N4CCOC4=O)cc23)cc1	2.48	> 100	2.53	> 100	1.02	27.1	1.46	9.54	1.95	11.8	1.87	14.5	3.16	59.8	3.64	> 100	2.53	6.21	2.82	9.57
Cc1ccc(S(=O)(=O)N2CCc3ccc(O)c4c3C2Cc2cc(Cl)ccc2-4)cc1 (centres undefined)	1.3	16.9	1.35	5.86	1.18	4.21	1.51	10.2	1.03	3.74	0.827	2.29	2.02	16.5	2.47	9.72	1.1	3.41	1.11	3.75
CC(C)(C)C(=O)C1CC(=O)c2ccccc2C1=O (centres undefined)	–	84.7	–	> 100	–	> 100	–	75.9	–	> 100	–	65.8	–	> 100	–	69.7	–	33.1	–	75
C[C@@]12CCC(=O)C=C1CC[C@H]1C2=CC[C@]2(C)C1CC[C@@]2(C)O (some centres undefined)	–	> 100	–	> 100	–	> 100	–	> 100	–	> 100	–	> 100	–	> 100	–	> 100	–	> 100	–	> 100
